The results in this text go back to PMC7144320, “Antitumor properties of certain spirooxindoles towards hepatocellular carcinoma endowed with antioxidant activity” (Journal of Enzyme Inhibition and Medicinal Chemistry, 2020).

In one test the test system is HepG2 hepatocellular carcinoma cell line. Description: MTT anti-proliferative assay, HepG2. The test is classed as cell-based. The settings on record: Homo sapiens, 48 h of incubation. Here is the method: (§1) Spirooxindoles 6a–p were evaluated for their anti-proliferative potency towards HepG2 liver cancer and PC-3 prostate cancer cell lines. Both cells lines were cultured as monolayers in DMEM supplemented with 10% foetal bovine serum (FBS), L-glutamine (2 mM), penicillin (100 U/mL) and streptomycin sulphate (100 µg/mL). Then, cells were sub-cultured with trypsine/EDTA solution, counted with haemocytometer and plated onto 96-well plates (5000 cells/well) and left overnight so as to form a semi-confluent monolayer.
(§2) Spirooxindoles 6a–p were tested for their in vitro anti-HCC activity against HepG2 cell line, and for their anti-prostate cancer activity against PC-3 cell line by the use of MTT reduction assay. The anticancer drug Adriamycin was co-assayed as the positive control.
In general terms: Tetrazolium dyes change colour on reduction, which living cells bring about.
With `COc1ccc2c(c1)C1(C(=O)N2)C(C#N)=C(c2ccc(C)cc2)Nc2c1c(-c1cccs1)nn2-c1ccccc1` (stereo not shown) [Compound 6n], the IC50 (as a rule, the concentration at which inhibition is half-maximal) is more than 50 µM.

In turn, `COc1ccc2c(c1)C1(C(=O)N2)C(C#N)=C(c2ccccc2)Nc2c1c(-c1cccs1)nn2-c1ccccc1` (stereo not shown) [Compound 6m] showed a half-inhibitory concentration (IC50) of 30.6 µM.

`N#CC1=C(c2ccc(Cl)cc2)Nc2c(c(-c3cccs3)nn2-c2ccccc2)C12C(=O)Nc1ccc(Cl)cc12` (stereo not shown) [Compound 6h] showed an IC50 of 19.9 µM.

Molecule `COc1ccc(C2=C(C#N)C3(C(=O)Nc4ccc(OC)cc43)c3c(-c4cccs4)nn(-c4ccccc4)c3N2)cc1` (stereo not shown) [Compound 6o] yielded an IC50 of more than 50 µM.

The molecule `COc1ccc(C2=C(C#N)C3(C(=O)Nc4ccc(Cl)cc43)c3c(-c4cccs4)nn(-c4ccccc4)c3N2)cc1` (stereo not shown) [Compound 6g] registered an IC50 of more than 50 µM.

In turn, `COc1cccc2c1C(=O)c1c(O)c3c(c(O)c1C2=O)C[C@@](O)(C(=O)CO)C[C@@H]3O[C@H]1C[C@H](N)[C@H](O)[C@H](C)O1` [Adriamycin, reference compound] had a half-maximal inhibitory concentration (IC50) of 0.12 µM.

Regarding `COc1ccc(C2=C(C#N)C3(C(=O)Nc4ccc(Br)cc43)c3c(-c4cccs4)nn(-c4ccccc4)c3N2)cc1` (stereo not shown) [Compound 6k], half-maximal inhibition (IC50) was put at 13.2 µM.

`N#CC1=C(c2ccc(Cl)cc2)Nc2c(c(-c3cccs3)nn2-c2ccccc2)C12C(=O)Nc1ccc(Br)cc12` (stereo not shown) [Compound 6l]: 12.7 µM corresponded to half-maximal inhibition (IC50).

Tested on in another test: not listed separately
Briefly: Ferric reducing antioxidant power (FRAP). The settings on record: 593 nm, 30 min at 37 °C. Here is the method: The Benzie and Strain method[33] was adopted to assess the ferric reducing antioxidant power (FRAP) for spirooxindoles 6a–p. Absorbance of mixtures was recorded at 593 nm after incubation for 30 min at 37 °C. FRAP results were expressed as μM Fe^2+ equivalents.
FRAP assay is a widely used antioxidant assay that uses antioxidant substances as reducing agents in a redox-linked colorimetric reaction, wherein Fe^3+ is reduced to Fe^2+ at acidic pH that results in a formation of a coloured ferrous-probe complex from a colourless ferric-probe complex. In this assay, the electron donation capacity (reflecting the electron transfer ability) of the examined compounds is evaluated.
In this study, all spirooxindoles 6a–p herein reported were evaluated for their potential FRAP. The results were expressed as µM Fe^2+ equivalents and presented in Table 6, where the higher µM Fe^2+ equivalents value means higher FRAP and subsequently higher antioxidant capacity.
`COc1ccc2c(c1)C1(C(=O)N2)C(C#N)=C(c2ccc(C)cc2)Nc2c1c(-c1cccs1)nn2-c1ccccc1` (stereo not shown) [Compound 6n]: the “FRAP, µM (Fe^2+ Eq.)” value is listed as 11.58 µM (Fe^2+ Eq.).

Consider `COc1ccc2c(c1)C1(C(=O)N2)C(C#N)=C(c2ccccc2)Nc2c1c(-c1cccs1)nn2-c1ccccc1` (stereo not shown) [Compound 6m], for which the “FRAP, µM (Fe^2+ Eq.)” value is given as 12.13 µM (Fe^2+ Eq.).

Turning to `N#CC1=C(c2ccc(Cl)cc2)Nc2c(c(-c3cccs3)nn2-c2ccccc2)C12C(=O)Nc1ccc(Cl)cc12` (stereo not shown) [Compound 6h], the “FRAP, µM (Fe^2+ Eq.)” value was 11.35 µM (Fe^2+ Eq.).

In the case of `COc1ccc(C2=C(C#N)C3(C(=O)Nc4ccc(OC)cc43)c3c(-c4cccs4)nn(-c4ccccc4)c3N2)cc1` (stereo not shown) [Compound 6o], the “FRAP, µM (Fe^2+ Eq.)” value is listed as 11.90 µM (Fe^2+ Eq.).

Turning to `O=C1O[C@H]([C@@H](O)CO)C(O)=C1O` [Ascorbic acid, reference compound], the “FRAP, µM (Fe^2+ Eq.)” value is recorded as 13.42 µM (Fe^2+ Eq.).

As to `COc1ccc(C2=C(C#N)C3(C(=O)Nc4ccc(Cl)cc43)c3c(-c4cccs4)nn(-c4ccccc4)c3N2)cc1` (stereo not shown) [Compound 6g], the “FRAP, µM (Fe^2+ Eq.)” value is 7.79 µM (Fe^2+ Eq.).

As for `COc1ccc(C2=C(C#N)C3(C(=O)Nc4ccc(Br)cc43)c3c(-c4cccs4)nn(-c4ccccc4)c3N2)cc1` (stereo not shown) [Compound 6k], the “FRAP, µM (Fe^2+ Eq.)” value was 8.499 µM (Fe^2+ Eq.).

With `N#CC1=C(c2ccc(Cl)cc2)Nc2c(c(-c3cccs3)nn2-c2ccccc2)C12C(=O)Nc1ccc(Br)cc12` (stereo not shown) [Compound 6l], the “FRAP, µM (Fe^2+ Eq.)” value is 11.59 µM (Fe^2+ Eq.).

For the next test, the system named is non-tumorigenic human breast MCF-10A cell line. Description: Cytotoxicity towards non-tumorigenic MCF-10A cells.
Details: not given
The test is classed as cell-based.
For `COc1ccc2c(c1)C1(C(=O)N2)C(C#N)=C(c2ccccc2)Nc2c1c(-c1cccs1)nn2-c1ccccc1` (stereo not shown) [Compound 6m], the half-maximal inhibitory concentration (IC50) turned out to be 186 µM.

For `COc1ccc(C2=C(C#N)C3(C(=O)Nc4ccc(Br)cc43)c3c(-c4cccs4)nn(-c4ccccc4)c3N2)cc1` (stereo not shown) [Compound 6k], half-maximal inhibition (IC50) was put at 136 µM.

The subject of another test is PC-3 prostate cancer cell line. Briefly: MTT anti-proliferative assay, PC-3. The format is cell-based. The settings on record: 48 h of incubation. How it is done: as §1, §2
In turn, `COc1ccc2c(c1)C1(C(=O)N2)C(C#N)=C(c2ccc(C)cc2)Nc2c1c(-c1cccs1)nn2-c1ccccc1` (stereo not shown) [Compound 6n] yielded a concentration for half-maximal inhibition (IC50) of 42.8 µM.

As to `COc1ccc2c(c1)C1(C(=O)N2)C(C#N)=C(c2ccccc2)Nc2c1c(-c1cccs1)nn2-c1ccccc1` (stereo not shown) [Compound 6m], the half-maximal inhibitory concentration (IC50) is 24.3 µM.

The molecule `N#CC1=C(c2ccc(Cl)cc2)Nc2c(c(-c3cccs3)nn2-c2ccccc2)C12C(=O)Nc1ccc(Cl)cc12` (stereo not shown) [Compound 6h] displayed an IC50 of more than 50 µM.

In the case of `COc1ccc(C2=C(C#N)C3(C(=O)Nc4ccc(OC)cc43)c3c(-c4cccs4)nn(-c4ccccc4)c3N2)cc1` (stereo not shown) [Compound 6o], the IC50 was more than 50 µM.

In turn, `COc1ccc(C2=C(C#N)C3(C(=O)Nc4ccc(Cl)cc43)c3c(-c4cccs4)nn(-c4ccccc4)c3N2)cc1` (stereo not shown) [Compound 6g] yielded a 50% inhibitory concentration (IC50) of more than 50 µM.

As for `COc1cccc2c1C(=O)c1c(O)c3c(c(O)c1C2=O)C[C@@](O)(C(=O)CO)C[C@@H]3O[C@H]1C[C@H](N)[C@H](O)[C@H](C)O1` [Adriamycin, reference compound], 0.62 µM corresponded to half-maximal inhibition (IC50).

As to `COc1ccc(C2=C(C#N)C3(C(=O)Nc4ccc(Br)cc43)c3c(-c4cccs4)nn(-c4ccccc4)c3N2)cc1` (stereo not shown) [Compound 6k], the IC50 was found to be 39.1 µM.

As for `N#CC1=C(c2ccc(Cl)cc2)Nc2c(c(-c3cccs3)nn2-c2ccccc2)C12C(=O)Nc1ccc(Br)cc12` (stereo not shown) [Compound 6l], the IC50 was more than 50 µM.

Tested on in the next test: not listed separately
Description: DPPH radical scavenging assay. The settings on record: mean ± SD of three experiments; 30 min, 517 nm. Here is the method:
The antioxidant potential of spirooxindoles 6a–p against DPPH˙ was evaluated as per previously described procedures by Brand-Williams et al.[32]. DPPH solution was prepared by dissolving 0.024 g DPPH in methanol (100 mL). In 96-well plates, × μL sample and 200-x μL DPPH solution were added. The plate was incubated for 30 min at room temperature in the dark, and finally, absorbance was recorded at 517 nm wavelength. Ascorbic acid was used as positive control. The percent radical scavenging potential was calculated for each compound via the following equation: Scavenging effect (%) = {(Absorbance of control − Absorbance of sample)/Absorbance of control} × 100.
The DPPH (2,2-diphenyl-1-picrylhydrazyl) radical scavenging activity assay is considered as one of the most common and simple methods for measuring the antioxidant ability to trap free radicals. […] Substances that have the potential to act as electron donors result in reduction of this DPPH radical to the corresponding DPPH2 disclosing their antioxidant potential. The principle of the method relies upon measuring the absorbance of the odd electrons of DPPH at 517 nm. The absorbance decreases, in the presence of free radical scavengers, proportional to the decrease of the DPPH radical concentration.
Consider `COc1ccc2c(c1)C1(C(=O)N2)C(C#N)=C(c2ccc(C)cc2)Nc2c1c(-c1cccs1)nn2-c1ccccc1` (stereo not shown) [Compound 6n], for which the “DPPH radical scavenging IC50” value was found to be 46.29 ± 2.52 µg/mL.

As for `COc1ccc2c(c1)C1(C(=O)N2)C(C#N)=C(c2ccccc2)Nc2c1c(-c1cccs1)nn2-c1ccccc1` (stereo not shown) [Compound 6m], the “DPPH radical scavenging IC50” value is 28.07 ± 1.63 µg/mL.

`N#CC1=C(c2ccc(Cl)cc2)Nc2c(c(-c3cccs3)nn2-c2ccccc2)C12C(=O)Nc1ccc(Cl)cc12` (stereo not shown) [Compound 6h]: the “DPPH radical scavenging IC50” value is given as 46.29 ± 2.18 µg/mL.

Consider `COc1ccc(C2=C(C#N)C3(C(=O)Nc4ccc(OC)cc43)c3c(-c4cccs4)nn(-c4ccccc4)c3N2)cc1` (stereo not shown) [Compound 6o], for which the “DPPH radical scavenging IC50” value is listed as 58.82 ± 3.14 µg/mL.

With `O=C1O[C@H]([C@@H](O)CO)C(O)=C1O` [Ascorbic acid, reference compound], the “DPPH radical scavenging IC50” value was 45.89 ± 2.39 µg/mL.

Regarding `COc1ccc(C2=C(C#N)C3(C(=O)Nc4ccc(Cl)cc43)c3c(-c4cccs4)nn(-c4ccccc4)c3N2)cc1` (stereo not shown) [Compound 6g], the “DPPH radical scavenging IC50” value turned out to be 97.47 ± 5.62 µg/mL.

Consider `COc1ccc(C2=C(C#N)C3(C(=O)Nc4ccc(Br)cc43)c3c(-c4cccs4)nn(-c4ccccc4)c3N2)cc1` (stereo not shown) [Compound 6k], for which the “DPPH radical scavenging IC50” value worked out at 69.25 ± 4.25 µg/mL.

On to `N#CC1=C(c2ccc(Cl)cc2)Nc2c(c(-c3cccs3)nn2-c2ccccc2)C12C(=O)Nc1ccc(Br)cc12` (stereo not shown) [Compound 6l], for which the “DPPH radical scavenging IC50” value was 41.36 ± 2.17 µg/mL.
